Assay results reported in patent US8518859B2, “Method for increasing yield of staple food crop” (National University Corporation Shizuoka University, priority 2009, dated 2013).
Marks after values point to notes of the source that are not given here.

Experiments:
[1] = test system: Rice (cultivar: "Nipponbare"); assay: Yield-increasing effect in soil culture of rice 3, treatment before planting (Example 4); format: in vivo, rice (genus Oryza)
Protocol: Rice (cultivar: “Nipponbare”) was used in the test. Seeds thereof were sown in a nursery box, and after 16 days of cultivation, the resulting rice seedlings were transplanted to a pot (1/5000-a) and hydroponically cultured in a culture medium added with the AHX (1 mM) synthesized in the above for 2 weeks before settled-planting.
After the above-described hydroponic culture, the resulting seedlings were settled-planted in soil (in 1/5000-a pot) which contains a fertilizer containing N (1,440 mg), P2O5 (12 mg), K2O (760 mg) and CaO (806 mg). and soil-cultured from Jun. 10, 2009 to Sep. 29, 2009 in the same manner as in Example 1. During the soil culture period, no treatment with AHX was performed, and water and nutrients were supplied once per day. It is noted here that the culture medium was not replaced.
(§1) The cereal crops obtained by the soil culture were dried for 2 weeks and the following items were measured: brown rice mass; water content of brown rice; size and number of brown rice (per plant); panicle length; culm length; number of panicles; and mass of the above-ground part (n=6).

rice (Nipponbare) [2] = assay: Yield-increasing effect in soil culture of rice 1 (Example 2); format: in vivo, rice (genus Oryza); conditions: AHX 50 μM
Protocol: (§2) Soil culture was carried out for 97 days starting in July in the same manner as in Example 1, except that seedlings of rice (Nipponbare) were transplanted one by one to a soil (in 1/5000-a pot) which contains a fertilizer containing N (1,440 mg), P2O5 (12 mg), K2O (760 mg) and CaO (806 mg).
Water and nutrients were supplied once a day. As the medium used for the addition, the culture medium for the AHX (50 μM)-treated section and the culture medium for the control section were respectively used in the AHX (50 μM)-treated section and the control section. It is noted here that, unlike the case of hydroponic culture, the culture medium was not replaced.
The cereal crops obtained by the soil culture were dried for 2 weeks and the following items were measured in the same manner as in Example 1: brown rice mass; water content, carbon content and nitrogen content of brown rice; size and number of brown rice (per plant); leaf length; culm length; panicle length; number of panicles; tiller number; and mass of the above-ground part (n=7).

[3] = test system: Rice (cultivar: "Nipponbare"); assay: Yield-increasing effect in hydroponic culture of rice (Example 1); format: in vivo, rice (genus Oryza)
Protocol: Rice (cultivar: “Nipponbare”) was used in the test. Seeds thereof were sown in a nursery box, and after 20 days of cultivation, the resulting rice seedlings were transplanted one by one to a pot (1/5000-a) and cultivated for 1 week with tap water.
After the cultivation with tap water, the thus obtained rice plants were cultured in a culture medium added with the AHX (50 μM), which was synthesized in the above, in an outdoor environment over a period of 97 days starting in July.
During the periods from the 8th day to the 32nd day and the period from the 73rd day to the 97th day after the transplantation, the culture was carried out in a medium having a half concentration of the undiluted culture medium, and during the period from the 33rd day to the 72nd day, the undiluted culture medium was used.
Water and nutrients were supplied once every 3 days. As the medium used for the addition, the culture medium for the AHX-treated section and the culture medium for the control section were respectively used in the AHX-treated section and the control section. It is noted here, however, that the culture medium was replaced once a week in the case of hydroponic culture.
The cereal crops obtained by the culture were dried for 2 weeks and the following items were measured: brown rice mass; water content, carbon content and nitrogen content of brown rice; size and number of brown rice (per plant); leaf length; culm length; panicle length; number of panicles; tiller number; and mass of the above-ground and underground parts. Here, the size of brown rice means the mass per grain determined from the brown rice mass (g/100 brown rice grains) and the number of brown rice refers to a value obtained by dividing the brown rice weight (g/plant) by the brown rice weight (g/100 brown rice grains) (number of plants n=6).

rice (Nipponbare) [4] = assay: Yield-increasing effect in soil culture of rice 2 (Example 3); format: in vivo, rice (genus Oryza); conditions: for Brown rice weight (g/plant): soil culture Jun. 10 to Sep. 29, n=6; for Brown rice weight (g/100 brown rice grains) / Culm length (cm) / Mass of the above-ground part (g/plant) / Number of panicles (/plant) / Panicle length (cm): n=6; for Brown rice size: mass per grain
Protocol: as §2, with “from Jun. 10, 2009 to Sep. 29, 2009” for “for 97 days starting in July”, “(Nipponbare) obtained by a 30-day cultivation” for “(Nipponbare)”
Water and nutrients were supplied once a day. As the medium used for the addition, the culture medium for the AHX (5 μM)-treated section, the culture medium for the ICA (2 μM)-treated section and the culture medium the control section were respectively used in the AHX (5 μM)-treated section, the ICA (2 μM)-treated section and the control section. It is noted here that, unlike the case of hydroponic culture, the culture medium was not replaced.
as §1

[5] = test system: seed potato (cultivar: "Danshaku"); assay: Yield-increasing effect in potato (Example 5); format: in vivo, potato (genus Solanum)
Protocol: A seed potato (cultivar: “Danshaku”) was cut into pieces of 30 g to 35 g in weight and they were each allowed to take roots in soil (in 1/2000-a pot) which contains a fertilizer containing N (960 mg), P2O5 (480 mg), K2O (640 mg) and MgO (320 mg). After 2-weeks of cultivation with tap water (after an above-ground part appeared), 2.74 mg (20 μmol) of AHX was dissolved in tap water and added to the pot every week. The Danshaku potato was cultured in an outdoor environment over a period of 12 weeks starting in January. The control section was treated with tap water only.
After 12 weeks, the Danshaku potato was harvested to measure the tuber mass (for the whole potato and a group consisting of potatoes having a weight of not less than 20 g that were extracted), the length and mass of the above-ground part and the leaf length (n=5).

wheat (Nourin 61) = assay: Yield-increasing effect in wheat (Example 6); format: in vivo, wheat (genus Triticum); conditions: 6 pots
Protocol: In 1/2000-a pots having crushed gravel in the bottom, 6 kg of a paddy-rice nursery soil was placed and, as a base fertilizer, 5-7-6 (N—P—K) was added in an amount of 4 g. The soil was sufficiently watered and 3 days later, 10 grains of wheat (Nourin 61) were sown in each pot. The wheat was cultured providing 300 ml of water once a week, and the seedlings were thinned 2 weeks after germination to leave 5 seedlings showing good growth. In the subsequent two weeks, a total of 6 pots were each treated once a week with AHX (5 μM), AHX (50 μM), AHX (1 mM), ICA (2 μM) or water only (control). Then, after culturing for 9 weeks providing 300 ml of just water once a week, the culture was continued for another 12 weeks by changing the amount of water to 500 ml once a week. It is noted here that, 2 weeks after the change was made in the amount of water, 0.75 g of ammonium sulfate was added to each pot as a panicle fertilizer. Further, the AHX (1 mM) treatment pots were subjected to an additional treatment with AHX (1 mM) for 2 weeks after the addition of the panicle fertilizer. The culture was carried out from Oct. 26, 2009 to May 12, 2010. After the completion of the culture, drying was performed for two weeks and the total wheat yield (g/5 plants) was measured.

[6] = 1 mM-treatment before planting, soil culture, n=6
[7] = AHX 50 μM, hydroponic culture 97 days, n=6
[8] = 20 μmol AHX per pot every week, 12 weeks, n=5

O=c1[nH]nnc2nc[nH]c12 [AHX, 2-azahypoxanthine]
Number of brown rice (/plant) ([1]; 1 mM-treatment before planting, soil culture): 2027 /plant
Brown rice weight (g/100 brown rice grains) [1, 6]: 2.15 g/100 brown rice grains
Culm length (cm) [1, 6]: 86 cm
Mass of the above-ground part (g/plant) [1, 6]: 154 *^ g/plant
Number of panicles (/plant) [1, 6]: 33 /plant
Panicle length (cm) [1, 6]: 21.1 cm
Brown rice size ([1]; 1 mM-treatment before planting, soil culture, mass per grain): 21.5 mg
Increase of brown rice weight per plant ([1]; 1 mM-treatment before planting, vs control): about 18%
Brown rice weight (g/plant) ([1]; 1 mM-treatment for 2 weeks before planting, then soil culture without AHX, n=6): 43.6 * g/plant
Number of brown rice (/plant) (rice (Nipponbare) [2]; soil culture 97 days): 1864 /plant
Brown rice weight (g/100 brown rice grains) (rice (Nipponbare) [2]; soil culture 97 days, n=7): 2.28 g/100 brown rice grains
Brown rice weight (g/plant) (rice (Nipponbare) [2]; soil culture 97 days, n=7): 42.5 * g/plant
Culm length (cm) (rice (Nipponbare) [2]; soil culture 97 days, n=7): 70.0 cm
Leaf length (cm) (rice (Nipponbare) [2]; soil culture 97 days, n=7): 76.5 cm
Mass of the above-ground part (g/plant) (rice (Nipponbare) [2]; soil culture 97 days, n=7): 122 *^ g/plant
Number of panicles (/plant) (rice (Nipponbare) [2]; soil culture 97 days, n=7): 24.5 /plant
Panicle length (cm) (rice (Nipponbare) [2]; soil culture 97 days, n=7): 21.1 cm
Tiller number (/plant) (rice (Nipponbare) [2]; soil culture 97 days, n=7): 26.2 /plant
Brown rice size (rice (Nipponbare) [2]; soil culture 97 days, mass per grain): 22.8 mg
Increase of brown rice weight per plant (rice (Nipponbare) [2]; soil culture, vs control): about 10%
Brown rice weight (g/plant) ([3]; AHX 50 μM in culture medium, hydroponic culture 97 days, n=6): 34.6 * g/plant
Number of brown rice (/plant) ([3]; AHX 50 μM, hydroponic culture 97 days): 1544 /plant
Brown rice weight (g/100 brown rice grains) [3, 7]: 2.24 * g/100 brown rice grains
Culm length (cm) [3, 7]: 60.7 cm
Leaf length (cm) [3, 7]: 72.2 * cm
Mass of the above-ground part (g/plant) [3, 7]: 103 *^ g/plant
Mass of underground part (g/plant) [3, 7]: 8.56 g/plant
Number of panicles (/plant) [3, 7]: 30.8 * /plant
Panicle length (cm) [3, 7]: 21.4 * cm
Tiller number (/plant) [3, 7]: 25.1 /plant
Brown rice size ([3]; AHX 50 μM, hydroponic culture 97 days, mass per grain): 22.4 mg
Increase of brown rice weight per plant ([3]; AHX 50 μM, hydroponic culture, vs control): about 6%
Number of brown rice (/plant) (rice (Nipponbare) [4]; 5 μM, soil culture): 2086 /plant
Brown rice weight (g/plant) (rice (Nipponbare) [4]; 5 μM): 46.3 * g/plant
Brown rice weight (g/100 brown rice grains) (rice (Nipponbare) [4]; 5 μM, soil culture): 2.22 g/100 brown rice grains
Culm length (cm) (rice (Nipponbare) [4]; 5 μM, soil culture): 89.8 cm
Mass of the above-ground part (g/plant) (rice (Nipponbare) [4]; 5 μM, soil culture): 150 g/plant
Number of panicles (/plant) (rice (Nipponbare) [4]; 5 μM, soil culture): 30.8 /plant
Panicle length (cm) (rice (Nipponbare) [4]; 5 μM, soil culture): 20.8 cm
Increase of brown rice weight per plant (rice (Nipponbare) [4]; 5 μM, soil culture, vs control): about 25%
Brown rice size (rice (Nipponbare) [4]; 5 μM, soil culture): 22.2 mg
Leaf length (cm) [5, 8]: 7 cm
Length of the above-ground part (cm) [5, 8]: 24 cm
Mass of the above-ground part (g/plant) [5, 8]: 30 g/plant
Total mass (g · potatoes of not less than 20 g/plant) [5, 8]: 85 * g · potatoes of not less than 20 g/plant
Total mass (g/plant) of tubers ([5]; 2.74 mg (20 μmol) AHX per pot every week, 12 weeks, soil, n=5): 95 * g/plant
Increase of total mass of potatoes ([5]; treated with AHX for 12 weeks, vs control): about 19%
Increase of mass, only potatoes of not less than 20 g ([5]; treated with AHX for 12 weeks, vs control section): about 40%
Seed Yield (g/5 plants) (wheat (Nourin 61); 5 μM, once a week for two weeks, soil pots): 44.66 g/5 plants
Seed Yield (g/5 plants) (wheat (Nourin 61); 50 μM, once a week for two weeks, soil pots): 45.68 g/5 plants
Seed Yield (g/5 plants) (wheat (Nourin 61); 1 mM, once a week for two weeks plus additional 2 weeks after panicle fertilizer): 46.79 g/5 plants

NC(=O)c1c[nH]cn1 [ICA, imidazole-4-carboxamide]
Number of brown rice (/plant) (rice (Nipponbare) [4]; 2 μM, soil culture): 2104 /plant
Brown rice weight (g/plant) (rice (Nipponbare) [4]; 2 μM): 46.5 * g/plant
Brown rice weight (g/100 brown rice grains) (rice (Nipponbare) [4]; 2 μM, soil culture): 2.21 g/100 brown rice grains
Culm length (cm) (rice (Nipponbare) [4]; 2 μM, soil culture): 87.2 cm
Mass of the above-ground part (g/plant) (rice (Nipponbare) [4]; 2 μM, soil culture): 152 g/plant
Number of panicles (/plant) (rice (Nipponbare) [4]; 2 μM, soil culture): 30.5 /plant
Panicle length (cm) (rice (Nipponbare) [4]; 2 μM, soil culture): 22.1 cm
Increase of grain weight per plant (rice (Nipponbare) [4]; 2 μM, soil culture, vs control): about 26%
Brown rice size (rice (Nipponbare) [4]; 2 μM, soil culture): 22.1 mg
Seed Yield (g/5 plants) (wheat (Nourin 61); 2 μM, once a week for two weeks, soil pots): 47.99 g/5 plants
